Results on 5 compounds are retold here after patent US4965280A, “Antifungal carbinols” (E. I. Du Pont de Nemours and Company, priority 1989, dated 1990).

The test system of one test is Puccinia recondita. The test can be described thus: Example G wheat leaf rust. Format: in vivo. The settings on record: 100 PPM, read-out: disease control rating, Ex. G.
In another test the test system is Phytophthora infestans. Kind of test: whole plant or invertebrate. Format: in vivo. The settings on record: Phytophthora infestans, in Solanum lycopersicum, read-out: disease control rating, Ex. H, 100 PPM.
The subject of a further test is Plasmorpara viticola. Kind of test: Example I grape downy mildew. The test is classed as in vivo. The settings on record: read-out: disease control rating, Ex. I. The gist of the method: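 Compounds were dissolved in acetone (6% of final volume) and suspended at 100 or 20 ppm in purified water with 250 ppm TREM 014 surfactant (polyhydric alcohol esters). Grape seedlings were sprayed with this suspension to run-off.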

A further test relates to BLACK NIGHTSHAD
Kind of test: Test E. Format: in vivo, Solanum nigrum.

For another test, the system named is Botrytis cinerea. The test can be described thus: Example C bean grey mold. Conditions: Botrytis cinerea, 24 h, 100 PPM; read-out: disease control rating, Ex. C. Format: in vivo. An outline of the steps:
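Test compounds were taken up in acetone (6% of final volume) and suspended at 100 or 20 ppm in purified water containing 250 ppm TREM 014 surfactant (polyhydric alcohol esters). Broad bean seedlings were sprayed with this suspension until run-off.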

The test system of a further test is LAMBSQUARTER
Kind of test: Test E. The test is classed as in vivo, Chenopodium album.

In test [1] the test system is Cercosporidium personatum. Kind of test: Example B Peanut Late Leafspot. Format: in vivo. Conditions: Nothopassalora personata; 100 PPM; read-out: disease control rating, Ex. B. An outline of the steps: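 Compounds were dissolved in acetone (6% of final volume) and suspended at 100 or 20 ppm in purified water containing 250 ppm TREM 014 surfactant (polyhydric alcohol esters). The suspension was sprayed to run-off on peanut seedlings.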

The test system of the next test is Pythium aphanadermatum. Kind of test: Example J cucumber damping off. The test is classed as in vivo. Also noted: key to phytotoxicity entry, Ex. J: P: disease control was not measured due to phytoxicity. The settings on record: 5 kg/ha; for pest or weed control at 5000 g/ha: Pythium, 336 h, read-out: disease control rating, Ex. J. An outline of the steps:
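Seeds and soil were inoculated with a mix of sand, cereal and Pythium aphanadermatum mycelium, the fungus responsible for cucumber damping off. They were kept in a growth chamber at 30° C. for 14 days, and disease was then rated to assess control.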

The test system of a further test is KOCHIA. Kind of test: Test E. The test is classed as in vivo, Kochia scoparia.
For test [2], the system named is Candida albicans ATCC 11651. Kind of test: In vitro antifungal MIC, microtiter broth dilution. The settings on record: Candida albicans, ATCC11651, 24 h, read-out: MIC values, C. albicans, 30°, 24 hours. A general note: Broth dilution looks for growth in wells or tubes with falling amounts of substance.
The test system of a further test is WATERCHESTNUT
Kind of test: Test C rice paddy. Format: in vivo, Eleocharis spp. The settings on record: Eleocharis, 504 h, 21 days, read-out: plant response; for pest or weed control at 64 g/ha: 0064 G/HA; for pest or weed control at 125 g/ha: 0125 G/HA; for pest or weed control at 250 g/ha: 0250 G/HA; for pest or weed control at 500 g/ha: 0500 G/HA. The text has this: (§1) Sixteen cm diameter Airlite plastic pots were partially filled with Tama slit loam soil and the soil saturated with water. Japonica and Indica rice seedlings a the 2.0 to 2.5 leaf stage were transplanted into 1/3 of the pots. Into another third of the pots were transplanted seedling or sprouted tubers of water plantain (Alisma trivale), Scripus (Scirpus paludosus), Cyperus (Cyperus esculentus), and arrowhead (Sagittaria spp.). The remaining pots were planted with barnyardgrass (Echinochloa crusgalli) seeds and sprouted tubes of water chestnut (Eleocharis spp.). These weeds all represent major rice weeds or genera of weeds important in rice. Three to four days after planting, the water level was raised to 3 cm (about 1200 ml/pot) and maintained a this level throughout the test. Chemical treatments were applied directly to the paddy water, within 24 hours of raising the water, after being formulated in a nonphytotoxic solvent. The pots were maintained in the greenhouse.

In another test the test system is RICE JAP EFF. The test can be described thus: Test C rice paddy. The test is classed as in vivo, Japonica rice. The settings on record: Oryza sativa, 504 h, 21 days, read-out: plant response; for pest or weed control at 64 g/ha: 0064 G/HA; for pest or weed control at 125 g/ha: 0125 G/HA; for pest or weed control at 250 g/ha: 0250 G/HA; for pest or weed control at 500 g/ha: 0500 G/HA.
Text: as §1

The next test has as its system BARNYARDGRASS
Kind of test: Test C rice paddy. The test is classed as in vivo, Echinochloa crusgalli. Conditions: Echinochloa crus-galli, 504 h, 21 days, read-out: plant response; for pest or weed control at 64 g/ha: 0064 G/HA; for pest or weed control at 125 g/ha: 0125 G/HA; for pest or weed control at 250 g/ha: 0250 G/HA; for pest or weed control at 500 g/ha: 0500 G/HA.
Text: as §1

In test [3] the test system is Fusarium oxysporum f. sp. cucumerinum. The test can be described thus: Example L cucumber wilt. Format: in vivo. The settings on record: 336 h, 5 kg/ha, read-out: disease control rating, Ex. L. The method, then:
[…] Seeds and soil were then inoculated with a mixture of sand, cereal and mycelium of the fungus Fusarium oxysporum f. sp. cucumerinum, causal agent of cucumber wilt, and incubated in a growth chamber at 30° C. for 14 days. Disease ratings were then made.

The MIC is the smallest concentration in the dilution series that meets the test's criterion for growth inhibition.

In brackets after ≈: the same amount, converted by molar mass.

Regarding `C=C(c1ccc(F)cc1)C(O)(Cn1cncn1)c1ccc(F)cc1F` (centres unmarked) [Example 4, 2-(2,4-Difluorophenyl)-3-(4-fluorophenyl)-1-(1H-1,2,4-triazol-1-yl)-3-buten-2-ol], the pest or weed control at 100 ppm in the test with Puccinia recondita was found to be 100%; in the test on Phytophthora infestans, 0%; in the test on Plasmorpara viticola, 81%; in the test with Botrytis cinerea, 88%; in test [1] it was 100%. The plant response in the test with BLACK NIGHTSHAD (POSTEMERGENCE 0064 GM/HA) is on record as 10%; in the test on BLACK NIGHTSHAD (POSTEMERGENCE 0125 GM/HA), 30%; in the test on BLACK NIGHTSHAD (POSTEMERGENCE 0250 GM/HA), 70%; with BLACK NIGHTSHAD (POSTEMERGENCE 0500 GM/HA), 90%; in the test with BLACK NIGHTSHAD (PREEMERGENCE 0500 GM/HA), 100%; in the test on LAMBSQUARTER (POSTEMERGENCE 0064 GM/HA), 0%. The plant response in the test with LAMBSQUARTER (POSTEMERGENCE 0125 GM/HA) is reported as 20%; in the test with LAMBSQUARTER (POSTEMERGENCE 0250 GM/HA), 20%; with LAMBSQUARTER (POSTEMERGENCE 0500 GM/HA), 70%; with LAMBSQUARTER (PREEMERGENCE 0500 GM/HA) it was 100%; with KOCHIA (POSTEMERGENCE 0064 GM/HA), 0%; in the test with KOCHIA (POSTEMERGENCE 0125 GM/HA) it was 30%. The plant response with KOCHIA (POSTEMERGENCE 0250 GM/HA) amounted to 70%; with KOCHIA (POSTEMERGENCE 0500 GM/HA), 90%; in the test with KOCHIA (PREEMERGENCE 0500 GM/HA) it was 100%. For the same compound, the pest or weed control at 5000 g/ha with Pythium aphanadermatum was found to be 0%. Further, the MIC in test [2] came to 0.03 µg/mL (≈ 0.0869 µM).

`C=C(c1ccc(F)cc1)C(O)(Cn1ncnc1I)c1ccc(F)cc1F` (centres unmarked) [Example 1381]: the pest or weed control at 100 ppm is 100% with Puccinia recondita; 0% in the test on Phytophthora infestans; 78% with Plasmorpara viticola; 97% in the test with Botrytis cinerea; 100% in [1]. Moreover, the pest or weed control at 64 g/ha in the test on WATERCHESTNUT stood at 0%; in the test on RICE JAP EFF it was 0%; in the test on BARNYARDGRASS, 55%. The pest or weed control at 125 g/ha with WATERCHESTNUT stood at 0%; with RICE JAP EFF it was 0%; with BARNYARDGRASS, 55%. Also, the pest or weed control at 250 g/ha with WATERCHESTNUT turned out to be 0%; in the test on RICE JAP EFF it was 20%; in the test with BARNYARDGRASS, 60%. For the same compound, the values for the pest or weed control at 500 g/ha in the test with WATERCHESTNUT, with RICE JAP EFF and with BARNYARDGRASS were 0%, 40% and 100%, respectively. For the same compound, the pest or weed control at 1000 g/ha in the test with WATERCHESTNUT amounted to 0%; in the test on RICE JAP EFF it was 60%; with BARNYARDGRASS it was 100%. Besides, the pest or weed control at 5000 g/ha (in test [3]; in the test on Pythium aphanadermatum) was 0% throughout.

For the compound `C=C(c1ccc(Cl)cc1)C(O)(Cn1cncn1)c1ccccc1F` (centres unmarked) [Example 669], the pest or weed control at 100 ppm in the test on Puccinia recondita turned out to be 100%; with Phytophthora infestans it was 0%; in the test with Plasmorpara viticola, 0%; with Botrytis cinerea, 90%; in test [1], 100%. Moreover, the pest or weed control at 64 g/ha is 0% in the test on WATERCHESTNUT, 0% with RICE JAP EFF and 90% in the test on BARNYARDGRASS. Also, the pest or weed control at 125 g/ha in the test on WATERCHESTNUT came out at 0%; with RICE JAP EFF, 0%; in the test with BARNYARDGRASS, 98%. For the same compound, the pest or weed control at 250 g/ha in the test on WATERCHESTNUT came out at 0%; in the test with RICE JAP EFF it was 0%; in the test with BARNYARDGRASS it was 98%. Also, the pest or weed control at 500 g/ha with WATERCHESTNUT was determined as 0%; in the test with RICE JAP EFF, 0%; with BARNYARDGRASS it was 90%. The results for the pest or weed control at 1000 g/ha in the test with WATERCHESTNUT, in the test on RICE JAP EFF and in the test on BARNYARDGRASS were 0%, 0% and 100%, respectively. The pest or weed control at 5000 g/ha in the test on Pythium aphanadermatum stood at 0%. For the same compound, in [2], the MIC came out at 0.03 µg/mL (≈ 0.0873 µM).

Turning to `C=C(c1ccccc1)C(O)(Cn1cncn1)c1ccc(Cl)cc1` (centres unmarked) [Example 51, 2-(4-Chlorophenyl)-3-phenyl-1-(1H-1,2,4-triazol-1-yl)-3-buten-2-ol], the pest or weed control at 100 ppm was 100% in the test with Puccinia recondita; 0% in the test with Phytophthora infestans; 0% in the test with Plasmorpara viticola; 96% with Botrytis cinerea; 100% in test [1]. In addition, the plant response with BLACK NIGHTSHAD (POSTEMERGENCE 0064 GM/HA) was 0%; in the test with BLACK NIGHTSHAD (POSTEMERGENCE 0125 GM/HA) it was 0%; in the test on BLACK NIGHTSHAD (POSTEMERGENCE 0250 GM/HA), 40%; in the test on BLACK NIGHTSHAD (POSTEMERGENCE 0500 GM/HA) it was 60%; with BLACK NIGHTSHAD (PREEMERGENCE 0500 GM/HA), 100%; with LAMBSQUARTER (POSTEMERGENCE 0064 GM/HA) it was 0%. The plant response in the test with LAMBSQUARTER (POSTEMERGENCE 0125 GM/HA) is on record as 0%; in the test on LAMBSQUARTER (POSTEMERGENCE 0250 GM/HA), 20%; in the test on LAMBSQUARTER (POSTEMERGENCE 0500 GM/HA), 40%; in the test with LAMBSQUARTER (PREEMERGENCE 0500 GM/HA), 100%; in the test on KOCHIA (POSTEMERGENCE 0064 GM/HA), 0%; in the test with KOCHIA (POSTEMERGENCE 0125 GM/HA), 0%. Also, the figures for the plant response with KOCHIA (POSTEMERGENCE 0250 GM/HA), in the test on KOCHIA (POSTEMERGENCE 0500 GM/HA) and in the test on KOCHIA (PREEMERGENCE 0500 GM/HA) were 0%, 0% and 70%, respectively. In addition, the “phytotoxicity entry, Ex. J” value in the test on Pythium aphanadermatum was “P”. In addition, the MIC in test [2] amounted to 0.03 µg/mL (≈ 0.0921 µM).

For `C=C(c1ccc(F)cc1)C(O)(Cn1ncnc1S)c1ccc(F)cc1F` (centres unmarked) [Example 1304], the pest or weed control at 100 ppm with Puccinia recondita was 100%; in the test on Phytophthora infestans it was 0%; with Plasmorpara viticola, 18%; in the test on Botrytis cinerea it was 97%; in test [1], 100%. Moreover, the pest or weed control at 64 g/ha was determined as 0% in the test on WATERCHESTNUT, 0% with RICE JAP EFF and 85% in the test on BARNYARDGRASS. The pest or weed control at 125 g/ha with WATERCHESTNUT was 0%; in the test on RICE JAP EFF, 0%; with BARNYARDGRASS it was 100%. Also, the figures for the pest or weed control at 250 g/ha in the test on WATERCHESTNUT, with RICE JAP EFF and with BARNYARDGRASS were 0%, 0% and 100%, respectively. The figures for the pest or weed control at 500 g/ha in the test on WATERCHESTNUT, in the test with RICE JAP EFF and in the test with BARNYARDGRASS were 0%, 0% and 98%, respectively. The pest or weed control at 1000 g/ha was 50% in the test with WATERCHESTNUT, 40% in the test with RICE JAP EFF and 100% with BARNYARDGRASS. In addition, the pest or weed control at 5000 g/ha (in test [3]; in the test on Pythium aphanadermatum) was 0% in each case.
